Experimental data taken from US20250195483A1, “SPIRO PIPERIDINE DERIVATIVES AS INHIBITORS OF APOL1 AND METHODS OF USING SAME” (Vertex Pharmaceuticals Incorporated, priority 2022, published 2025).
pIC50: −log10 of the molar value.

Target: T1, APOL1 (Homo sapiens, UniProt O14791)
T1 sequence (O14791 1-398): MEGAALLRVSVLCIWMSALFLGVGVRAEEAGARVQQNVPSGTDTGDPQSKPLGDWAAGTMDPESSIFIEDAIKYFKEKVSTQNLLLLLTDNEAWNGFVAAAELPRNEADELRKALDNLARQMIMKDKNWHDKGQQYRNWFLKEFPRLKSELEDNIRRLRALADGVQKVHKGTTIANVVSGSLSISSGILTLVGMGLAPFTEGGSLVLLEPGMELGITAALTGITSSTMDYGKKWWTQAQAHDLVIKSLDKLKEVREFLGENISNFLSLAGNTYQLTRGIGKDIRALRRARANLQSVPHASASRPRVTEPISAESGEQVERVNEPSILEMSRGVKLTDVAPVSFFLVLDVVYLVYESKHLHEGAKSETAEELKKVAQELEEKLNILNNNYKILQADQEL
Assay: MultiTox-Fluor Multiplex Cytotoxicity Assay, tet-inducible APOL1 T-REx-HEK293 cells (G0, G1 or G2 clone not specified for Table 20)
Format: cell-based
Settings: tet-induced, 24 hours with compound, ratio of dead to live cells, read-out: IP50 (i.e., IC50 for cell proliferation)
Experimental: Human embryonic kidney (HEK293) cell lines containing a tet-inducible expression system (T-REx™; Invitrogen, Carlsbad, CA) and Adeno-associated virus site 1 pAAVS1-Puro-APOL1 G0 or pAAVS1-Puro-APOL1 G1 or pAAVS1-Puro-APOL1 G2 Clones G0 DC2.13, G1 DC3.25, and G2 DC4.44 were grown in a T-225 flask at ˜90% confluency in cell growth media (DMEM, 10% Tet-free FBS, 2 mM L-glutamine, 100 Units/mL penicillin-streptomycin, 5 μg/mL blasticidin S HCl, 1 μg/mL puromycin dihydrochloride). Cells were washed with DPBS and then trypsinized to dissociate from the flask. Media was used to quench the trypsin, cells were then pelleted at 200 g and resuspended in fresh cell assay media (DMEM, 2% Tet-free FBS, 2 mM L-glutamine, 100 Units/mL penicillin-streptomycin). Cells were counted and diluted to 1.17×10^6 cells/mL. 20 μL of cells (23,400/well) were dispensed in every well of a 384-well Poly-D-Lysine coated plate using the Multidrop dispenser. The plates were then incubated at room temperature for one hour.
Tetracycline is needed to induce APOL1 expression. 1 mg/mL tet stock in water was diluted to 250 ng/mL (5×) in cell assay media. 60 μL of cell assay media (no tet control) was dispensed in columns 1 and 24, and 60 μL of 5× tet in 384-PP-round bottom plate was dispensed in columns 2 to 23 with the Multidrop dispenser.
Assay ready plates from the Global Compound Archive were ordered using template 384_APOL1Cell_DR10n2_50 uM_v3. Compounds were dispensed at 200 nL in DMSO. The final top concentration was 10 μM with a 10 point 3-fold dilution in duplicate in the MultiTox assay.
20 μL was transferred from the 5× tet plate to the ARP and mixed, then 5 μL of 5× tet and the compounds were transferred to the cell plate and mixed using the Bravo. The cell plate was placed in the humidified 37° C. 5% CO2 incubator for 24 hours.
The MultiTox-Fluor Multiplex Cytotoxicity Assay was performed in accordance with the manufacturer's protocol. After cells were incubated with tet and compound for 24 hours, 25 μL of 1× MultiTox reagent was added to each well using the Multidrop dispenser; the plates were placed on a plate shaker (600 rpm) for 2 minutes, then centrifuged briefly and placed back in the 37° C. incubator for 30 minutes. The cell viability (excitation: 400 nm, emission: 486 nm) and cytotoxicity (excitation: 485 nm, emission: 535 nm) were read using the EnVision plate reader. A ratio of dead (cytotoxicity) to live (viability) cells was reported. Data was exported and analyzed in Genedata. Data was normalized using percent of control, no tet (100% viability), and 50 ng/mL tet treated (0% viability), and fit using Smart Fit settings in Genedata.

Question: `CN1C(=O)C2(CCN(Cc3cnc(NC(C)(C)CO)nc3)CC2)c2cc(Cl)ccc21` [Compound 40] was tested. Which pIC50 did it give?
Answer: 6.30 to 7.30

Question: `Cc1ccc2c(c1)C1(CCN(Cc3ccc(OCC(C)(C)N)nc3)CC1)OC2(C)C` [Compound 288, 2-methyl-1-[[5-[(1,1,5-trimethylspiro[isobenzofuran-3,4′-piperidine]-1′-yl)methyl]-2-pyridyl]oxy]propan-2-amine] was tested. Which pIC50 did it give?
Answer: 6.30 to 7.30

Question: With `Cc1ccc2c(c1)[C@@]1(CCN(Cc3cnn(CC(C)(CO)CO)c3)[C@@H](C)C1)OCC2` [Compound 101] as the molecule, how does the pIC50 read?
Answer: 6.30 to 7.30

Question: `NC(=O)C1OC2(CCN(Cc3cnn(-c4ccccc4)c3)CC2)c2cc(Cl)ccc21` (stereo not drawn) [Compound 191, 5-chloro-1′-[(1-phenylpyrazol-4-yl)methyl]spiro[1H-isobenzofuran-3,4′-piperidine]-1-carboxamide] was tested. Which pIC50 did it give?
Answer: ≥ 7.30

Question: How did the pIC50 turn out when `NC(=O)C1OC2(CCN(Cc3cnc(N)nc3)CC2)c2cc(Cl)ccc21` (stereo not drawn) [Compound 256] was run?
Answer: 6.30 to 7.30

Question: With `CS(=O)(=O)CCn1cc(CN2CCC3(CC2)C(=O)Nc2c(CO)cc(Cl)cc23)cn1` [Compound 29] as the molecule, how does the pIC50 read?
Answer: ≥ 7.30

Question: With `C[C@H]1C[C@@]2(CCN1Cc1cn(CCO)nn1)OCCc1ccc(Cl)cc12` [Compound 141, 2-[4-[[(1R,2′S)-7-chloro-2′-methyl-spiro[isochromane-1,4′-piperidine]-1′-yl]methyl]triazol-1-yl]ethanol] as the molecule, how does the pIC50 read?
Answer: ≥ 7.30

Question: With `Cc1ccc2c(c1)[C@]1(CCN(Cc3cnc(NC(C)(C)CO)nc3)[C@@H](C)C1)OCC2` [Compound 94] as the molecule, how does the pIC50 read?
Answer: ≥ 7.30

Question: With `Cc1cc(Cn2cc(CN3CC[C@]4(C[C@@H]3C)OCCc3ccc(Cl)cc34)nn2)cc(=O)[nH]1` [Compound 180] as the molecule, how does the pIC50 read?
Answer: 6.30 to 7.30

Question: How did the pIC50 turn out when `CS(=O)(=O)CCn1cc(CN2CCC3(CC2)C(=O)Nc2c(Cl)cc(Cl)cc23)cn1` [Compound 36] was run?
Answer: 6.30 to 7.30

Question: How did the pIC50 turn out when `NC(=O)C1OC2(CCN(Cc3cc(C4CC4)[nH]n3)CC2)c2cc(Cl)ccc21` (stereo not drawn) [Compound 242] was run?
Answer: 6.30 to 7.30

Question: With `CNC(=O)C1OC2(CCN(Cc3cnn(C(C)C)c3)CC2)c2cc(Cl)ccc21` (stereo not drawn) [Compound 298, 6-chloro-1′-((1-isopropyl-1H-pyrazol-4-yl)methyl)-N-methyl-3H-spiro[isobenzofuran-1,4′-piperidine]-3-carboxamide] as the molecule, how does the pIC50 read?
Answer: ≤ 6.30

Question: With `CNc1ncc(CN2CCC3(CC2)OC(C(N)=O)c2ccc(Cl)cc23)cn1` (stereo not drawn) [Compound 244] as the molecule, how does the pIC50 read?
Answer: ≥ 7.30

Question: `NC(=O)c1cnc(CN2CCC3(CC2)OC(C(N)=O)c2ccc(Cl)cc23)cn1` (stereo not drawn) [Compound 245] was tested. Which pIC50 did it give?
Answer: 6.30 to 7.30

Question: With `Cc1cccc2c1C(O)CC21CCN(Cc2cnn(CCS(C)(=O)=O)c2)[C@@H](C)C1` (stereo partly drawn) [Compound 309, (2′S)-2′,4-dimethyl-1′-((1-(2-(methylsulfonyl)ethyl)-1H-pyrazol-4-yl)methyl)-2,3-dihydrospiro[indene-1,4′-piperidin]-3-ol] as the molecule, how does the pIC50 read?
Answer: 6.30 to 7.30

Question: `CS(=O)(=O)CCn1cc(CN2CCC3(CC2)C(=O)Nc2ccc(C#N)cc23)cn1` [Compound 30] was tested. Which pIC50 did it give?
Answer: ≤ 6.30

Question: How did the pIC50 turn out when `CS(=O)(=O)CCn1cc(CN2CCC3(CC2)C(=O)Nc2ccc(C(F)F)cc23)cn1` [Compound 33] was run?
Answer: 6.30 to 7.30

Question: `NC(=O)C1OC2(CCN(Cc3c[nH]c4nccnc34)CC2)c2cc(Cl)ccc21` (stereo not drawn) [Compound 232] was tested. Which pIC50 did it give?
Answer: ≥ 7.30

Question: How did the pIC50 turn out when `CNC(=O)C1OC2(CCN(Cc3cnn(CCS(C)(=O)=O)c3)CC2)c2cc(Cl)ccc21` (stereo not drawn) [Compound 210, 5-chloro-N-methyl-1′-[[1-(2-methylsulfonylethyl)pyrazol-4-yl]methyl]spiro[1H-isobenzofuran-3,4′-piperidine]-1-carboxamide] was run?
Answer: 6.30 to 7.30

Question: With `C[C@H]1CC2(CCN1Cc1cnn(-c3ccccc3)c1)OC(C(N)=O)c1ccc(Cl)cc12` (single isomer, unassigned) [Compound 293, (2′S)-5-chloro-2′-methyl-1′-[(1-phenylpyrazol-4-yl)methyl]spiro[1H-isobenzofuran-3,4′-piperidine]-1-carboxamide] as the molecule, how does the pIC50 read?
Answer: 6.30 to 7.30

Question: With `C[C@H]1C[C@@]2(CCN1Cc1cn(CC3(O)CCOC3)nn1)OCCc1ccc(Cl)cc12` (stereo partly drawn) [Compound 149] as the molecule, how does the pIC50 read?
Answer: ≥ 7.30

Question: `C[C@H]1C[C@@]2(CCN1Cc1cn(C3CC(=O)N(C)C3)nn1)OCCc1ccc(Cl)cc12` (stereo partly drawn) [Compound 146] was tested. Which pIC50 did it give?
Answer: ≥ 7.30

Question: How did the pIC50 turn out when `C[C@H]1CC2(CCN1Cc1cnn(CCS(C)(=O)=O)c1)CC(O)c1ccc(Cl)cc12` (single isomer, unassigned) [Compound 306, (2′S)-5-chloro-2′-methyl-1′-[[1-(2-methylsulfonylethyl)pyrazol-4-yl]methyl]spiro[indane-3,4′-piperidine]-1-ol] was run?
Answer: ≥ 7.30

Question: With `C[C@H]1C[C@@]2(CCN1Cc1cn(Cc3nc(CO)cs3)nn1)OCCc1ccc(Cl)cc12` [Compound 164] as the molecule, how does the pIC50 read?
Answer: 6.30 to 7.30

Question: `CC(C)(CO)Nc1ncc(CN2CCC3(CC2)C(=O)Nc2ccc(Cl)cc23)cn1` [Compound 10] was tested. Which pIC50 did it give?
Answer: 6.30 to 7.30

Question: `CNC(=O)c1ccc(CN2CCC3(CC2)OC(C(N)=O)c2ccc(Cl)cc23)cc1` (stereo not drawn) [Compound 233] was tested. Which pIC50 did it give?
Answer: ≥ 7.30

Question: With `C[C@H]1C[C@@]2(CCN1Cc1cn(Cc3ncc4c(n3)CCOC4)nn1)OCCc1ccc(Cl)cc12` [Compound 177] as the molecule, how does the pIC50 read?
Answer: 6.30 to 7.30

Question: How did the pIC50 turn out when `CS(=O)(=O)CCn1cc(CN2CCC3(CC2)C(=O)N(CC(F)F)c2ccccc23)cn1` [Compound 73] was run?
Answer: ≤ 6.30

Question: `CN1C(=O)C2(CCN(C[C@H]3C[C@@H](NC(=O)c4cc(C5CC5)no4)C3)CC2)c2cc(Cl)ccc21` [Compound 60, N-[3-[(5-chloro-1-methyl-2-oxo-spiro[indoline-3,4′-piperidine]-1′-yl)methyl]cyclobutyl]-3-cyclopropyl-isoxazole-5-carboxamide] was tested. Which pIC50 did it give?
Answer: ≤ 6.30

Question: With `CN1C(=O)C2(CCN(Cc3cnn(CC4(O)CCS(=O)(=O)CC4)c3)CC2)c2cc(Cl)ccc21` [Compound 54] as the molecule, how does the pIC50 read?
Answer: 6.30 to 7.30

Question: With `C[C@H]1C[C@@]2(CCN1Cc1cn[nH]c1)OCCc1ccc(Cl)cc12` [Compound 104] as the molecule, how does the pIC50 read?
Answer: ≥ 7.30

Question: `C[C@H]1C[C@@]2(CCN1Cc1cn(Cc3cn(C4CC4)c(=O)[nH]c3=O)nn1)OCCc1ccc(Cl)cc12` [Compound 189] was tested. Which pIC50 did it give?
Answer: ≥ 7.30

Question: `C[C@H]1C[C@@]2(CCN1Cc1cnn(CCS(C)(=O)=O)c1)OC[C@@H](O)c1ccc(Cl)cc12` [Compound 133] was tested. Which pIC50 did it give?
Answer: ≥ 7.30

Question: With `Cc1cc(CN2CC[C@]3(C[C@@H]2C)OCCc2ccc(Cl)cc23)[nH]n1` [Compound 109] as the molecule, how does the pIC50 read?
Answer: ≥ 7.30

Question: `Cc1ccc2c(c1)C1(CCN(Cc3ccccc3)C(C)C1)OCC2` (stereo not drawn) [Compound 137] was tested. Which pIC50 did it give?
Answer: ≤ 6.30

Question: With `O=C1Nc2ccc(Cl)cc2C12CCN(Cc1cccc(OC(F)F)c1)CC2` [Compound 14] as the molecule, how does the pIC50 read?
Answer: ≤ 6.30

Question: How did the pIC50 turn out when `CS(=O)(=O)CCn1cc(CN2CCC3(CC2)OC(C(N)=O)c2ccc(Cl)cc23)nn1` (stereo not drawn) [Compound 208, 5-chloro-1′-[[1-(2-methylsulfonylethyl)triazol-4-yl]methyl]spiro[1H-isobenzofuran-3,4′-piperidine]-1-carboxamide] was run?
Answer: ≤ 6.30

Question: With `C[C@H]1C[C@@]2(CCN1Cc1cncnc1)OCCc1ccc(Cl)cc12` [Compound 119] as the molecule, how does the pIC50 read?
Answer: ≥ 7.30

Question: How did the pIC50 turn out when `C[C@H]1CC2(CCN1Cc1cnn(-c3ccccc3)c1)OC(C(N)=O)c1ccc(Cl)cc12` (stereo partly drawn) [Compound 292, (2′S)-5-chloro-2′-methyl-1′-[(1-phenylpyrazol-4-yl)methyl]spiro[1H-isobenzofuran-3,4′-piperidine]-1-carboxamide] was run?
Answer: ≥ 7.30

Question: `C[C@H]1C[C@@]2(CCN1Cc1cnn(C(C)(C)C)c1)OCCc1ccc(Cl)cc12` [Compound 120] was tested. Which pIC50 did it give?
Answer: 6.30 to 7.30

Question: `C[C@H]1C[C@@]2(CCN1Cc1cnn3c1CCC3)OCCc1ccc(Cl)cc12` [Compound 113] was tested. Which pIC50 did it give?
Answer: ≤ 6.30

Question: `CS(=O)(=O)CCn1cc(CN2CCC3(CC2)C(=O)N(CCO)c2ccc(Cl)cc23)cn1` [Compound 45, 5-chloro-1-(2-hydroxyethyl)-1′-[[1-(2-methylsulfonylethyl)pyrazol-4-yl]methyl]spiro[indoline-3,4′-piperidine]-2-one] was tested. Which pIC50 did it give?
Answer: 6.30 to 7.30
